According to ChEMBL document CHEMBL4507291 (2021):

How the values were obtained:
[1] = target: Testis-specific serine/threonine-protein kinase 1 (TSSK1B) (Homo sapiens) (UniProt Q9BXA7); assay: STK22D (TSSK1) Kinase screen; conditions: Compound concentration 1.0 uM
[2] = target: T1, Rhodopsin kinase GRK7 (Homo sapiens) (UniProt Q8WTQ7); assay: GRK7 Kinase screen; conditions: Compound concentration 1.0 uM
T1 sequence (whole entry): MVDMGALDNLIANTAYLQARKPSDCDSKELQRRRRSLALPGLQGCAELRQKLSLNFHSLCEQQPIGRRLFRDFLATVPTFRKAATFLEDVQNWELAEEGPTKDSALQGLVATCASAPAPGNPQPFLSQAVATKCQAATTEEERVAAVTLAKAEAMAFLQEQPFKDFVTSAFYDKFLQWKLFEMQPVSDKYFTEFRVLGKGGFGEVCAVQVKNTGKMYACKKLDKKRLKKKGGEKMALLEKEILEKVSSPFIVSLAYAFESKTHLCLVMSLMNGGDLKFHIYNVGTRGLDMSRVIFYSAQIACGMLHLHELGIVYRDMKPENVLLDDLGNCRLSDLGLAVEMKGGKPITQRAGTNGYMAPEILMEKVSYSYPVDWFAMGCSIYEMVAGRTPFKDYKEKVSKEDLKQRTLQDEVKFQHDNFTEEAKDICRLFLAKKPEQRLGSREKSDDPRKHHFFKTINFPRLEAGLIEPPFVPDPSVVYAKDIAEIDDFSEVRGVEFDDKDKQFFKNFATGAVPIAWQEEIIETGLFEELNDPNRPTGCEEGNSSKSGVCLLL

[3] = target: T2, Serine/threonine-protein kinase Nek2 (Homo sapiens) (UniProt P51955); assay: NEK2 Kinase screen; conditions: Compound concentration 1.0 uM
T2 sequence (whole entry): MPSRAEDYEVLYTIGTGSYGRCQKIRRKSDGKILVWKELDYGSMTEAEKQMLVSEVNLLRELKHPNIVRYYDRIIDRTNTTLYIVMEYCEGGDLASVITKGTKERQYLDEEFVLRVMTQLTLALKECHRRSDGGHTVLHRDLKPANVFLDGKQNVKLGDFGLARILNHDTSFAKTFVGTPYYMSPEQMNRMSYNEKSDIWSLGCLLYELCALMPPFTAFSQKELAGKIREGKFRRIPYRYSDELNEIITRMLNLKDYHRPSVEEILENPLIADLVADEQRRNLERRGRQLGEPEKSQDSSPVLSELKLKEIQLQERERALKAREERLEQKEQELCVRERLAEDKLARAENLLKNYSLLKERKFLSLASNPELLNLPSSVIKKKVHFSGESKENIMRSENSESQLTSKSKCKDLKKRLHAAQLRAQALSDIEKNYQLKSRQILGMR

[4] = system: Serine/threonine-protein kinase B-raf (Homo sapiens), P15056 [V600E]; assay: BRAF V599E Kinase screen; conditions: Compound concentration 1.0 uM
Serine/threonine-protein kinase B-raf (Homo sapiens), P15056 [V600E], sequence (P15056 whole entry V600E): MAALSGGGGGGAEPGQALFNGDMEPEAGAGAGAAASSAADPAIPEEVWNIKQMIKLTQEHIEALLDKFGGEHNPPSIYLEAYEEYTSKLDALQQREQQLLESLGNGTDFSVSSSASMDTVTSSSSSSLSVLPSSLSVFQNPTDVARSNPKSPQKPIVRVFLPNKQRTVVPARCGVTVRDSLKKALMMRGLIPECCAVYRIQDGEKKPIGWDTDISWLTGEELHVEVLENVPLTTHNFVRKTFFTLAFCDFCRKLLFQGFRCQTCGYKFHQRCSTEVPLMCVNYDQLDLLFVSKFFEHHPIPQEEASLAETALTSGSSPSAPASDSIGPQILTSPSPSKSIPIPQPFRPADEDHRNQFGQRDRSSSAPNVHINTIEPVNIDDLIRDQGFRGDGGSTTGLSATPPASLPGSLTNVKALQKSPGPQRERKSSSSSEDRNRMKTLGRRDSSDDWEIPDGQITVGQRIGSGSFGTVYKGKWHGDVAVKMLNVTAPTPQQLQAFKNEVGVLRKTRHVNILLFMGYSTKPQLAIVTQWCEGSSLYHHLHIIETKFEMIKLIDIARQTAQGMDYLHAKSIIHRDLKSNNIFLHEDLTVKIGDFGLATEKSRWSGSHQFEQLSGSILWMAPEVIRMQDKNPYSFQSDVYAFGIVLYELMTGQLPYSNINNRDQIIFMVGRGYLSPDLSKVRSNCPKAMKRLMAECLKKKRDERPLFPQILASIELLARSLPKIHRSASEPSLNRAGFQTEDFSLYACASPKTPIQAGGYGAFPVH

[5] = target: Serine/threonine-protein kinase 26 (Homo sapiens) (UniProt Q9P289); assay: MST4 Kinase screen; conditions: Compound concentration 1.0 uM
Serine/threonine-protein kinase 26 (Homo sapiens), sequence (Q9P289 2-416 limits assumed): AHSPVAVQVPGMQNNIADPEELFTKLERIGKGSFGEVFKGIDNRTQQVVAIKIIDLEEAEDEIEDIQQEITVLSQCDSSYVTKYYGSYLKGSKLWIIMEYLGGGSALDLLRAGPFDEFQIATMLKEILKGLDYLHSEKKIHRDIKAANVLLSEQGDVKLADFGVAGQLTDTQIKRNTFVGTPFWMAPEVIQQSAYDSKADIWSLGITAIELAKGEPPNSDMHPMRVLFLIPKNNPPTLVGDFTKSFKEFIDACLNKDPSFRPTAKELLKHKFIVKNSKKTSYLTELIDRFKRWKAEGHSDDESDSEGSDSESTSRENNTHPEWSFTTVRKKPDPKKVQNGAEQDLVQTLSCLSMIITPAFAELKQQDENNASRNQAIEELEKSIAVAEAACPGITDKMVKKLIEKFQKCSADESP

Rattus norvegicus = organism: Rattus norvegicus; assay: GABAA, Ro-15-1788, Hippocampus Eurofins-Panlabs radioligand binding assay; design: ligand concentration 1 nM; conditions: Compound concentration 10.0 uM
[6] = target: T3, Mitogen-activated protein kinase kinase kinase 5 (Homo sapiens) (UniProt Q99683); assay: MAP3K5 (ASK1) Kinase screen; conditions: Compound concentration 1.0 uM
T3 sequence (whole entry): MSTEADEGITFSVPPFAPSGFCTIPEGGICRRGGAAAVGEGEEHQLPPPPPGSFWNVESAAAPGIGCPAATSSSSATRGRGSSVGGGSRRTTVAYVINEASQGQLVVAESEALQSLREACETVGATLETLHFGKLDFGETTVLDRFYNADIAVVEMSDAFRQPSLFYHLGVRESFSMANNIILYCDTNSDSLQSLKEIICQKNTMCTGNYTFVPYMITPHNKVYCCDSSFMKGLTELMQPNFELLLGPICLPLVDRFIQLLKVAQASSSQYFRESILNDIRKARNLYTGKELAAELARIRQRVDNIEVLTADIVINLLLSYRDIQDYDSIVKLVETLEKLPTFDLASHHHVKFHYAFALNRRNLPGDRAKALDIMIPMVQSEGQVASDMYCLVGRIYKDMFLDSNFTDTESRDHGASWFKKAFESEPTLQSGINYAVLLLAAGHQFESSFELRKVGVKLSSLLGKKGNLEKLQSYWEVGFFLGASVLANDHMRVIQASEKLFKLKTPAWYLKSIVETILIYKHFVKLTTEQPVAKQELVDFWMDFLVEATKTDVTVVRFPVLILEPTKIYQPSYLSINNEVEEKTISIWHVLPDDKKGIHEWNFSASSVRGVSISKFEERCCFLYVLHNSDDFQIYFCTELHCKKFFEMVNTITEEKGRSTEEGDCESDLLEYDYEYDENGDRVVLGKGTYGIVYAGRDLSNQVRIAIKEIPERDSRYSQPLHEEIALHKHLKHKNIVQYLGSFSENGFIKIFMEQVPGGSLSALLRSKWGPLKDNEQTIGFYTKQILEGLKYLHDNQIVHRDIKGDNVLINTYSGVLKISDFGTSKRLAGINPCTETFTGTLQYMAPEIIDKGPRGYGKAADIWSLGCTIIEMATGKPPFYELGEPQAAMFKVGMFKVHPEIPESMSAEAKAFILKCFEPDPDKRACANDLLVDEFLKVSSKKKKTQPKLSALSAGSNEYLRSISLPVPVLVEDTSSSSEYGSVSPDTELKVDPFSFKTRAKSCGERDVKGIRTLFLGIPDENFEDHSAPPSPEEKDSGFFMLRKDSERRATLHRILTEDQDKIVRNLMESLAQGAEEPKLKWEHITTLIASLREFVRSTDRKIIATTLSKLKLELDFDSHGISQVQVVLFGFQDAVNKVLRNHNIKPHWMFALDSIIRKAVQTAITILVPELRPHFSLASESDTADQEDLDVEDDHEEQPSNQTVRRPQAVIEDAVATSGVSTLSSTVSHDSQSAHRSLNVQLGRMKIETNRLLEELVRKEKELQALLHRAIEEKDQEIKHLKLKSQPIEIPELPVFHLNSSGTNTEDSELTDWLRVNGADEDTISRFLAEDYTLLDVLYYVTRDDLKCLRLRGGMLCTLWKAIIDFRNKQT

[7] = target: Ephrin type-A receptor 4 (Homo sapiens) (UniProt P54764); assay: EPHA4 Kinase screen; conditions: Compound concentration 1.0 uM
Ephrin type-A receptor 4 (Homo sapiens), sequence (P54764 whole entry): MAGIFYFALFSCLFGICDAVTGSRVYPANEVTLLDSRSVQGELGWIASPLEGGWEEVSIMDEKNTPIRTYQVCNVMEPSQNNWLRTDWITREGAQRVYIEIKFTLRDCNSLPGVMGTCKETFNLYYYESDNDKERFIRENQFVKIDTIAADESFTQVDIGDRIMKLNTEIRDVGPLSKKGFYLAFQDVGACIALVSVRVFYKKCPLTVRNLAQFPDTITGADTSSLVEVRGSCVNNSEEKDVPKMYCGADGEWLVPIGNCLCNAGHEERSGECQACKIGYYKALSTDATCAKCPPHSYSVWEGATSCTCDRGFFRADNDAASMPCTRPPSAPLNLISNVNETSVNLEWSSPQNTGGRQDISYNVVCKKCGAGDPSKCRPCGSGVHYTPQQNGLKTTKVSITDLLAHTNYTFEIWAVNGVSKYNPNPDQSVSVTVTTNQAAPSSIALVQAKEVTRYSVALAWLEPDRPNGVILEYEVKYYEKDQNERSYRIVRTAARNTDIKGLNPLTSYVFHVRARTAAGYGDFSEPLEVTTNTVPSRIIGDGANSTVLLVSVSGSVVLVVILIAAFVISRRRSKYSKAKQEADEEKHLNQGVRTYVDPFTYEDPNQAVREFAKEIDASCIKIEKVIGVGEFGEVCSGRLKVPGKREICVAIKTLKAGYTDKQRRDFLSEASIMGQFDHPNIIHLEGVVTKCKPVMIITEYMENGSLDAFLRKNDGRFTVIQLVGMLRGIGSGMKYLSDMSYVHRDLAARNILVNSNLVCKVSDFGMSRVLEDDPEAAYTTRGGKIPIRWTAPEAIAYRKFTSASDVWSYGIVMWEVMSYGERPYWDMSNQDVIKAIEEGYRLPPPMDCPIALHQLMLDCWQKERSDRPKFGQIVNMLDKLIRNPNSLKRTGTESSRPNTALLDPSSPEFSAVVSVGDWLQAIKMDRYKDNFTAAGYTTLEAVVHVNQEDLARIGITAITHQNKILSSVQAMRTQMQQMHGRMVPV

Measured: inhibition

Testis-specific serine/threonine-protein kinase 1 (TSSK1B) (Homo sapiens), sequence (Q9BXA7 whole entry, looked up): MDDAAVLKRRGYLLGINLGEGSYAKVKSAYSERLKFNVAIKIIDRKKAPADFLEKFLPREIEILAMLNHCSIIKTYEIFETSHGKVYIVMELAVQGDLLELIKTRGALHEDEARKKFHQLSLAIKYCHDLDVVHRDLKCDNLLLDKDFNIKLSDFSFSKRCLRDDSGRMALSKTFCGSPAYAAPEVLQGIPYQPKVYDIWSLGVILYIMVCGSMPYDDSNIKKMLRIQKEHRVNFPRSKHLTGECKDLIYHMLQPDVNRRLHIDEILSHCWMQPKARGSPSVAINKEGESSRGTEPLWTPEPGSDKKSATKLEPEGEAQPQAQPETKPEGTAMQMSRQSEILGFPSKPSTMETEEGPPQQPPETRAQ

C[C@@H]1CN(c2cc(-c3n[nH]c4ccc(OC5(C)CC5)cc34)ncn2)C[C@H](C)O1 [MLi-2]
inactive: [1] 15.8% | [2] 4.4% | [3] -2.6% | [4] 10.4% | [5] 6.89% | Rattus norvegicus 1% | [6] 71.9% | [7] 4.82%
